Data taken from patent US8324179B2, “Nucleoside analogs for antiviral treatment” (Gilead Sciences, Inc., priority 2007, dated 2012).
Where two headings read alike, the source gives them in different places.

Assays:
Replicon cells = assay: HCV EC50 determination, replicon luciferase assay; type: cell-based; settings: 3 days, luciferase activity, read-out: Replicon inhibiting potency EC50
Protocol: Replicon cells were seeded in 96-well plates at a density of 8×10^3 cells per well in 100 μL of culture medium, excluding Geneticin. Compound was serially diluted in 100% DMSO and then added to the cells at a 1:200 dilution, achieving a final concentration of 0.5% DMSO and a total volume of 200 μL. Plates were incubated at 37° C. for 3 days, after which culture medium was removed and cells were lysed in lysis buffer provided by Promega's luciferase assay system. Following the manufacturer's instruction, 100 μL of luciferase substrate was added to the lysed cells and luciferase activity was measured in a TopCount luminometer.

HCV Δ21 NS5b polymerase = molecular target: T1, HCV Δ21 NS5b polymerase (Hepatitis C virus genotype 1b, UniProt P26663); assay: NS5b polymerase assay (HCV IC50 determination); type: biochemical
T1 construct: 75 nM HCV Δ21 NS5b polymerase
T1 sequence (P26663 2420-2989, stated change not applied): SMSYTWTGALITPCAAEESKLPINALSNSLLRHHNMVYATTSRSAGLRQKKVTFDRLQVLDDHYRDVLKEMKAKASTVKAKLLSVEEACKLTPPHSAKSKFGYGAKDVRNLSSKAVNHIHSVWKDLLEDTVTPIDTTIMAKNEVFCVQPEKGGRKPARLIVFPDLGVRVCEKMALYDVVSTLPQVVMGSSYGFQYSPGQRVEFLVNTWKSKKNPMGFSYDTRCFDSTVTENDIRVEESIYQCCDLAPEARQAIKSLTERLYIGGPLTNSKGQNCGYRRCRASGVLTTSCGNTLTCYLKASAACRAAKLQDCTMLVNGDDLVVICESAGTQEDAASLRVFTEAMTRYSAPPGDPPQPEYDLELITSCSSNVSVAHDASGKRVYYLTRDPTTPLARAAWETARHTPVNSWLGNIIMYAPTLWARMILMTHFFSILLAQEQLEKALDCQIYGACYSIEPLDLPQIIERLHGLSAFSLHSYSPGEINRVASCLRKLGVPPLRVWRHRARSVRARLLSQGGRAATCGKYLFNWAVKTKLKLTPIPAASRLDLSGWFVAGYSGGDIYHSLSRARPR
Protocol: Assay Protocol: NS5b polymerase assay (40 μL) was assembled by adding 28 μL polymerase mixture (final concentration: 50 mM Tris-HCl at pH 7.5, 10 mM KCL, 5 mM MgCl2, 1 mM DTT, 10 mM EDTA, 4 ng/μL of RNA template, and 75 nM HCV Δ21 NS5b polymerase) to assay plates followed by 4 μL of compound dilution. The polymerase and compound were pre-incubated at 35° C. for 10 minute before the addition of 8 μL of nucleotide substrate mixture (33P-α-labeled competing nucleotide at KM and 0.5 mM of the remaining three nucleotides). The assay plates were covered and incubated at 35° C. for 90 min. Reactions were then filtered through 96-well DEAE-81 filter plates via vacuum. The filter plates were then washed under vacuum with multiple volumes of 0.125 M NaHPO4, water, and ethanol to remove unincorporated label. Plates were then counted on TopCount to assess the level of product synthesis over background controls. The IC50 value was determined using Prism fitting program.

| Molecule | EC50 (Replicon cells; Hepatitis C virus, 72 h) [µM] | IC50 (HCV Δ21 NS5b polymerase) [µM] | also measured |
| --- | --- | --- | --- |
| Nc1ncnc2c1nnn2C1OC(CCP(=O)(O)O)C(O)C1O (stereo not shown) [Compound 6.7, {2-[5-(7-Amino-[1,2,3]triazolo[4,5-d]pyrimidin-3-yl)-3,4-dihydroxy-tetrahydro-furan-2-yl]-ethyl}-phosphonic acid] | > 100 |  |  |
| Nc1ncnc2c1nnn2[C@@H]1O[C@H](/C=C/P(=O)(O)OP(=O)(O)OP(=O)(O)O)[C@@H](O)[C@H]1O [Compound 6.8] |  | > 100 |  |
| CC(=O)Nc1nc2c(ncn2C2OC(C=CP(=O)(O)O)CC2OC(=O)c2ccccc2)c(=O)[nH]1 (stereo not shown) [Compound 9.10, Benzoic acid 2-(2-acetylamino-6-oxo-1,6-dihydro-purin-9-yl)-5-(2-phosphono-vinyl)-tetrahydro-furan-3-yl ester] | 10 to 100 |  |  |
| CCCCOC(=O)[C@H](C)NP(=O)(/C=C/[C@@H]1C[C@@H](O)[C@H](n2cnc3c(=O)[nH]c(N)nc32)O1)N[C@@H](C)C(=O)OCCCC [Compound 9.11] |  |  | EC50 (Replicon cells): < 10 µM |
| Nc1nc2c(ncn2[C@@H]2O[C@H](/C=C/P(=O)(O)OP(=O)(O)OP(=O)(O)O)C[C@H]2O)c(=O)[nH]1 [Compound 9.12] |  | > 100 |  |
| Nc1nc2c(nnn2C2OC(C=CP(=O)(O)O)CC2O)c(=O)[nH]1 (stereo not shown) [Compound 10.2, {2-[5-(5-Amino-7-oxo-6,7-dihydro-[1,2,3]triazolo[4,5-d]pyrimidin-3-yl)-4-hydroxy-tetrahydro-furan-2-yl]-vinyl}-phosphonic acid] | 10 to 100 |  |  |
| CCCCOC(=O)[C@H](C)NP(=O)(/C=C/[C@@H]1C[C@@H](O)[C@H](n2nnc3c(=O)[nH]c(N)nc32)O1)N[C@@H](C)C(=O)OCCCC [Compound 10.3] | > 100 |  |  |
| Nc1nc2c(nnn2[C@@H]2O[C@H](/C=C/P(=O)(O)OP(=O)(O)OP(=O)(O)O)C[C@H]2O)c(=O)[nH]1 [Compound 10.4] |  | > 100 |  |
| Nc1ncnc2c1ncn2C1OC(C=CP(=O)(O)O)CC1O (stereo not shown) [Compound 12.2, {2-[5-(6-Amino-purin-9-yl)-4-hydroxy-tetrahydro-furan-2-yl]-vinyl}-phosphonic acid] | < 10 |  |  |
| Nc1nc(N)c2ncn(C3OC(C=CP(=O)(O)O)CC3O)c2n1 (stereo not shown) [Compound 13.2, {2-[5-(2,6-Diamino-purin-9-yl)-4-hydroxy-tetrahydro-furan-2-yl]-vinyl}-phosphonic acid] | > 100 |  |  |
| COC1C(O)C(C=CP(=O)(O)O)OC1n1cnc2c(=O)[nH]c(N)nc21 (stereo not shown) [Compound 16.9, {2-[5-(2-Amino-6-oxo-1,6-dihydro-purin-9-yl)-3-hydroxy-4-methoxy-tetrahydro-furan-2-yl]-vinyl}-phosphonic acid] | > 100 |  |  |
| COC1C(O)C(C=CP(=O)(O)OP(=O)(O)OP(=O)(O)O)OC1n1cnc2c(=O)[nH]c(N)nc21 (stereo not shown) [Compound 16.95] |  | 10 to 100 |  |
| COC1C(O)C(C=CP(=O)(O)O)OC1n1ccc(N)nc1=O (stereo not shown) [Compound 17.5, {2-[5-(4-Amino-2-oxo-2H-pyrimidin-1-yl)-3-hydroxy-4-methoxy-tetrahydro-furan-2-yl]-vinyl}-phosphonic acid] | > 100 |  |  |
| Nc1nc2c(ncn2C2OC(C=CP(=O)(O)O)C(O)C2O)c(=O)[nH]1 (stereo not shown) [Compound 18.8, {2-[5-(2-Amino-6-oxo-1,6-dihydro-purin-9-yl)-3,4-dihydroxy-tetrahydro-furan-2-yl]-vinyl}-phosphonic acid] | 10 to 100 |  |  |
| Nc1ncnc2c1ncn2[C@@H]1O[C@H](/C=C/P(=O)(O)O)[C@@H](O)[C@H]1O [Compound 24.4, (E)-2-((2R,3S,4R,5R)-5-(6-amino-9H-purin-9-yl)-3,4-dihydroxy-tetrahydrofuran-2-yl)vinylphosphonic acid] | > 100 |  |  |
| Nc1ncnc2c1cnn2[C@@H]1O[C@H](/C=C/P(=O)(O)O)[C@@H](O)[C@H]1O [Compound 25.3, (E)-2-((2R,3S,4R,5R)-5-(4-amino-1H-pyrazolo[3,4-d]pyrimidin-1-yl)-3.4-dihydroxy-tetrahydrofuran-2-yl)vinylphosphonic acid] |  |  | EC50 (Replicon cells): > 100 µM |
| C[C@@]1(O)[C@H](O)[C@@H](/C=C/P(=O)(O)O)O[C@H]1n1nnc2c(N)ncnc21 [Compound 27.8, (E)-2-((2R,3R,4R,5R)-5-(7-amino-3H-[1,2,3]triazolo[4,5-d]pyrimidin-3-yl)-3,4-dihydroxy-4-methyl-tetrahydrofuran-2-yl)vinylphosphonic acid] | > 100 |  |  |

| Molecule | EC50 (Replicon cells; Hepatitis C virus, 72 h) [µM] | IC50 (HCV Δ21 NS5b polymerase) [µM] | also measured |
| --- | --- | --- | --- |
| Nc1ncnc2c1nnn2[C@@H]1O[C@H](/C=C/P(=O)(O)O)C[C@H]1O [Compound 38.2, (E)-2-((2S,4R,5R)-5-(7-amino-3H-[1,2,3]triazolo[4,5-d]pyrimidin-3-yl)-4-hydroxy-tetrahydrofuran-2-yl)vinylphosphonic acid] | > 100 |  |  |
| Nc1ncnc2c1nnn2C1OC(C=CP(=O)(O)OP(=O)(O)OP(=O)(O)O)CC1O (stereo not shown) [Compound 38.4] |  | 10 to 100 |  |
| CNc1nc(N)nc2c1ncn2C1OC(C=CP(=O)(O)O)CC1O (stereo not shown) [Compound 46.3, {2-[5-(2-Amino-6-methylamino-purin-9-yl)-4-hydroxy-tetrahydro-furan-2-yl]-vinyl}-phosphonic acid] | > 100 |  |  |
| CNc1ncnc2c1ncn2C1OC(C=CP(=O)(O)O)CC1O (stereo not shown) [Compound 47.2, {2-[4-Hydroxy-5-(6-methylamino-purin-9-yl)-tetrahydro-furan-2-yl]-vinyl}-phosphonic acid] | > 100 |  |  |
| CCCCOC(=O)[C@H](C)NP(=O)(/C=C/[C@@]1(N=[N+]=[N-])O[C@@H](n2ccc(=O)[nH]c2=O)[C@H](O)[C@@H]1O)N[C@@H](C)C(=O)OCCCC [Compound 48.7] | 10 to 100 |  |  |
| O=c1ccn([C@@H]2O[C@H](/C=C/P(=O)(O)O)C[C@H]2O)c(=O)[nH]1 [Compound 50.6] | > 100 |  |  |
| O=C1C=Cc2nn([C@@H]3O[C@H](/C=C/P(=O)(O)OP(=O)(O)OP(=O)(O)O)C[C@H]3O)c3ncnc(c23)N1 [Compound 52.6] |  | < 10 |  |
| Nc1nc(N)c2nnn(C3OC(C=CP(=O)(O)OP(=O)(O)OP(=O)(O)O)CC3O)c2n1 (stereo not shown) [Compound 53.4] |  | > 100 |  |
| CCCCOC(=O)[C@H](C)NP(=O)(/C=C/[C@@H]1C[C@@H](O)[C@H](n2cnc(C(N)=O)n2)O1)N[C@@H](C)C(=O)OCCCC [Compound 54.3] | > 100 |  |  |
| NC(=O)c1ncn([C@@H]2O[C@H](/C=C/P(=O)(O)OP(=O)(O)OP(=O)(O)O)C[C@H]2O)n1 [Compound 54.4] |  | > 100 |  |
| Nc1ncnc2c1ncn2[C@@H]1O[C@H](/C=C/P(=O)(O)OP(=O)(O)OP(=O)(O)O)[C@@H](O)[C@H]1F [Compound 55.7] |  | < 10 |  |
| CCCCOC(=O)[C@H](C)NP(=O)(/C=C/[C@H]1O[C@@H](n2cnc3c(N)ncnc32)[C@H](F)[C@@H]1O)N[C@@H](C)C(=O)OCCCC [Compound 55.8] | 10 to 100 |  |  |
| Nc1ncnc2c1ncn2[C@@H]1O[C@H](/C=C/P(=O)(O)OP(=O)(O)OP(=O)(O)O)[C@@H](O)[C@@H]1F [Compound 56.5] |  | > 100 |  |
| CCCCOC(=O)[C@H](C)NP(=O)(/C=C/[C@H]1O[C@@H](n2cnc3c(N)ncnc32)[C@@H](F)[C@@H]1O)N[C@@H](C)C(=O)OCCCC [Compound 56.6] |  |  | EC50 (Replicon cells): < 10 µM |
| O=c1ccn([C@@H]2O[C@H](/C=C/P(=O)(O)OP(=O)(O)OP(=O)(O)O)[C@@H](O)[C@H]2F)c(=O)[nH]1 [Compound 58.7] |  | 10 to 100 |  |
| CN(NS(C)(=O)=O)c1ncnc2c1ncn2[C@@H]1O[C@H](/C=C/P(=O)(O)OP(=O)(O)OP(=O)(O)O)C[C@H]1O [Compound 60.5] |  | > 100 |  |
| {2-[5-(4-Amino-2-oxo-2H-pyridin-1-yl)-4-hydroxy-tetrahydro-furan-2-yl]-vinyl}-phosphonic acid [Compound 11.2] |  |  | EC50 (Replicon cells): > 100 µM |
